From patent US20220096379A1, “SELF-EMULSIFYING DRUG FORMULATION FOR IMPROVING MEMBRANE PERMEABILITY OF COMPOUND” (Chugai Seiyaku Kabushiki Kaisha, priority 2016, published 2022)
Like-named read-outs stand apart in the source and are kept apart here. Starred links: 1 amine or outer side, 2 acyl side, 3 side chain; linkers in the order of their positions; H or OH if unused. Positions of bridges follow the written chain, without caps; N, C: chain ends. Non-standard residues stand in square brackets, D forms with d. Residues, ends and D or L forms follow the SMILES beside them. *: point of attachment. NMeF = CN[C@@H](Cc1ccccc1)C(=O)O; NMeI = CC[C@H](C)[C@H](NC)C(=O)O; NMeβAla = CN(CCC(=O)[*:2])[*:1]; NMeL = CN[C@@H](CC(C)C)C(=O)O; NMeA = CN[C@@H](C)C(=O)O; Piperidide = C1CCN(*)CC1; Sar = CNCC(=O)O; tBu = CC(C)(C)*

Legend:
[1] = Caco-2 membrane permeability evaluation (improved method, 20-24 h pre-incubation, 96-well); type: in vitro ADME; details: human; for Papp at 180 min: commercially available middle molecular weight compounds; for Papp A→B at 180 min: cyclic peptides, pre-incubation 20-24 h, apical pH 6.0, basal pH 7.4 4% BSA
Method: After Caco-2 cells were cultured on a 96-well transwell for three weeks, DMEM+FaSSIF (1% DMSO)+the compound was added to the Apical side and DMEM was added to the Basal side, and this was pre-incubated under 5% CO2 at 37° C. and 80 rpm for 20 hours to 24 hours. After pre-incubation, the pre-incubation solutions on the Apical and Basal sides were removed by aspiration and washed, a permeability test was initiated by adding FaSSIF/HBSS buffer (pH 6.0) containing the compound to the Apical side and HBSS buffer (pH 7.4) containing 4% BSA to the Basal side. Each well was shaken under 5% CO2, at 37° C. and 80 rpm. […] The permeability coefficient was calculated from the amount of permeation.
More specifically, after Caco-2 cells were cultured on a 96-well transwell for three weeks, DMEM+FaSSIF (1% DMSO)+the compound was added to the Apical side and DMEM was added to the Basal side, and this was pre-incubated at 5% CO2, 37° C., and 80 rpm for 20 hours to 24 hours. After pre-incubation, the pre-incubation solutions on the Apical side and on the Basal side were removed by aspiration and washed, FaSSIF/HBSS buffer (1% DMSO) (pH 6.0) containing the compound was added to the Apical side, and HBSS buffer (4% BSA) (pH 7.4) was added to the Basal side, and membrane permeability assays were initiated. […] From the amount of permeation, the membrane permeability coefficient (Papp) was calculated.

[2] = Log D (pH 7.4) measurement, n-octanol/buffer; details: n-octanol/pH 7.4 buffer
Method: (§1) A two-phase separated solution of n-octanol and a pH 7.4 buffer was prepared, a DMSO solution of the drug was added to the prepared two-phase-separated solution. After shaking (room temperature, 1800 rpm, two hours), the solution was centrifuged (3000 rpm, ten minutes), only the buffer fractions were collected, and drug concentrations in the buffer fractions were measured by LC/MS. Log D (pH 7.4) was calculated from the measured drug concentrations.

physchem = details: pH 7.4
Method: as §1

[3] = cited from earlier work
Caco-2 cells = details: cited from earlier work; for decrease in the concentration on the Apical side: 120 minutes of incubation

Row | Papp at 180 min [1] [×10⁻⁶ cm/s] | logD [2] | Structure (SMILES) | other results
1 | 0.0736 | 0.11 | C[C@@H]1[C@H](O)[C@@H](C)/C=C/C=C/C=C/C=C/C=C/C=C/C=C/[C@H](O[C@@H]2O[C@H](C)[C@@H](O)[C@H](N)[C@@H]2O)C[C@@H]2O[C@](O)(C[C@@H](O)C[C@@H](O)[C@H](O)CC[C@@H](O)C[C@@H](O)CC(=O)O[C@H]1C)C[C@H](O)[C@H]2C(=O)O [AmphotericinB] | 
2 | 0.515 | 0.62 | CC[C@H]1OC(=O)[C@H](C)[C@@H](O[C@H]2C[C@@](C)(OC)[C@@H](O)[C@H](C)O2)[C@H](C)[C@@H](O[C@@H]2O[C@H](C)C[C@H](N(C)C)[C@H]2O)[C@](C)(O)C[C@@H](C)CN(C)[C@H](C)[C@@H](O)[C@]1(C)O [Azithromycin] | 
3 |  |  | CC[C@H](C)[C@H]1C(=O)N(C)[C@@H](C)C(=O)N(C)[C@@H](Cc2ccccc2)C(=O)N[C@@H]([C@@H](C)O)C(=O)N(C)[C@@H](Cc2ccccc2)C(=O)N(C)[C@@H](CC(C)C)C(=O)N2CCC[C@H]2C(=O)N[C@H](C(=O)N2CCCCC2)CC(=O)N[C@@H](C)C(=O)NCC(=O)N(C)[C@@H](CC(C)C)C(=O)N1C [Compound (1)] (AG[NMeL][NMeI][NMeA][NMeF]T[NMeF][NMeL]PD-Piperidide; lactam N-11) | Papp A→B at 180 min [1]: 0.262 ×10⁻⁶ cm/s; logD at 2 h (physchem): 5.19; intrinsic hepatic clearance CLh int ([3]; human liver microsomes): 74 μL/min/mg protein
4 |  |  | CC[C@H](C)[C@H]1C(=O)N[C@@H](COC(C)(C)C)C(=O)N[C@H](C(=O)N2CCCCC2)CC(=O)N(C)[C@@H](C)C(=O)N(C)[C@@H](Cc2ccccc2)C(=O)N(C)CC(=O)N(C)[C@@H](CC(C)C)C(=O)N[C@@H]([C@@H](C)O)C(=O)N(C)[C@@H](C)C(=O)N(C)[C@@H](CC(C)C)C(=O)N1C [Compound (2)] ([NMeA][NMeF][Sar][NMeL]T[NMeA][NMeL][NMeI]S(tBu)D-Piperidide; lactam N-10) | logD at 2 h (physchem): 4.43; intrinsic hepatic clearance CLh int ([3]; human liver microsomes): 48 μL/min/mg protein
5 |  |  | CC[C@H](C)[C@H]1C(=O)N[C@H](C(=O)N2CCCCC2)CC(=O)N[C@H](C(C)C)C(=O)N(C)[C@@H](CC(C)C)C(=O)N(C)[C@@H](Cc2ccccc2)C(=O)N(C)[C@@H](C)C(=O)N[C@@H]([C@@H](C)O)C(=O)N(C)CC(=O)N(C)[C@@H](CC(C)C)C(=O)N[C@@H](COC(C)(C)C)C(=O)N1C [Compound (3)] ([dV][NMeL][NMeF][NMeA]T[Sar][NMeL]S(tBu)[NMeI]D-Piperidide; lactam N-10) | Papp A→B at 180 min [1]: 0.249 ×10⁻⁶ cm/s; logD at 2 h (physchem): 4.18; intrinsic hepatic clearance CLh int ([3]; human liver microsomes): 46 μL/min/mg protein
6 |  |  | CC(C)C[C@@H]1NC(=O)[C@H](Cc2ccccc2)N(C)C(=O)[C@H](Cc2ccccc2)N(C)C(=O)[C@H](CC(C)C)NC(=O)[C@H](C)N(C)C(=O)[C@H]([C@@H](C)O)NC(=O)[C@H](C)N(C)C(=O)C[C@@H](C(=O)N2CCCCC2)NC(=O)[C@H](CC(C)C)N(C)C1=O [Compound (4)] ([NMeA]T[NMeA]L[NMeF][NMeF]L[NMeL]D-Piperidide; lactam N-9) | Papp A→B at 180 min [1]: 4.14 ×10⁻⁶ cm/s; intrinsic hepatic clearance CLh int ([3]; human liver microsomes): 189 μL/min/mg protein; logD at 2 h [2]: 5.17
7 |  |  | CC[C@H](C)[C@H]1C(=O)N[C@H](C(=O)N2CCCCC2)CC(=O)N[C@H](C(C)C)C(=O)N(C)[C@@H](Cc2ccccc2)C(=O)N(C)[C@@H](CC(C)C)C(=O)N[C@@H]([C@@H](C)O)C(=O)N(C)CC(=O)N(C)[C@@H](CC(C)C)C(=O)N[C@@H](COC(C)(C)C)C(=O)N1C [Compound (5)] ([dV][NMeF][NMeL]T[Sar][NMeL]S(tBu)[NMeI]D-Piperidide; lactam N-9) | Papp A→B at 180 min [1]: 1.85 ×10⁻⁶ cm/s; intrinsic hepatic clearance CLh int ([3]; human liver microsomes): 58 μL/min/mg protein; logD at 2 h [2]: 4.31
8 |  |  | CC(C)C[C@H]1C(=O)N(C)[C@@H](CC(C)C)C(=O)N[C@H](C(=O)N2CCCCC2)CC(=O)N(C)CCC(=O)N(C)[C@@H](Cc2ccccc2)C(=O)N[C@@H]([C@@H](C)O)C(=O)N(C)CC(=O)N[C@@H](COC(C)(C)C)C(=O)N1C [Compound (6)] ([NMeβAla][NMeF]T[Sar]S(tBu)[NMeL][NMeL]D-Piperidide; lactam N-8) | logD at 2 h (physchem): 3.19; intrinsic hepatic clearance CLh int ([3]; human, microsomes): 86 μL/min/mg protein
9 | 0.264 |  | C[C@H]1O[C@@H](O[C@H]2[C@@H](O)C[C@H](O[C@H]3[C@@H](O)C[C@H](O[C@H]4CC[C@@]5(C)[C@H](CC[C@@H]6[C@@H]5C[C@@H](O)[C@]5(C)[C@@H](C7=CC(=O)OC7)CC[C@]65O)C4)O[C@@H]3C)O[C@@H]2C)C[C@H](O)[C@@H]1O [Digoxin] | 
10 | 0.382 | 0.89 | CC[C@H]1OC(=O)[C@H](C)[C@@H](O[C@H]2C[C@@](C)(OC)[C@@H](O)[C@H](C)O2)[C@H](C)[C@@H](O[C@@H]2O[C@H](C)C[C@H](N(C)C)[C@H]2O)[C@](C)(O)C[C@@H](C)C(=O)[C@H](C)[C@@H](O)[C@]1(C)O [Erythromycin] | 
11 | 1.06 | 4.29 | CCC(C)n1ncn(-c2ccc(N3CCN(c4ccc(OCC5COC(Cn6cncn6)(c6ccc(Cl)cc6Cl)O5)cc4)CC3)cc2)c1=O (stereo not drawn) [Itraconazole] | 
12 | 0.138 | 3.36 | CC(=O)O[C@H]1C(=O)[C@@]2(C)[C@H]([C@H](OC(=O)c3ccccc3)[C@]3(O)C[C@H](OC(=O)[C@H](O)[C@@H](NC(=O)c4ccccc4)c4ccccc4)C(C)=C1C3(C)C)[C@]1(OC(C)=O)CO[C@@H]1C[C@@H]2O [Paclitaxel] | 
13 | 1.84 | 4.36 | CO[C@H]1C[C@@H]2CC[C@@H](C)[C@@](O)(O2)C(=O)C(=O)N2CCCC[C@H]2C(=O)O[C@H]([C@H](C)C[C@@H]2CC[C@@H](O)[C@H](OC)C2)CC(=O)[C@H](C)/C=C(\C)[C@@H](O)[C@@H](OC)C(=O)[C@H](C)C[C@H](C)/C=C/C=C/C=C/1C [Rapamycin] | 
14 | 1.08 | 3.88 | CO[C@H]1/C=C/O[C@@]2(C)Oc3c(C)c(O)c4c(c3C2=O)C2=NC3(CCN(CC(C)C)CC3)NC2=C(NC(=O)/C(C)=C\C=C\[C@H](C)[C@H](O)[C@@H](C)[C@@H](O)[C@@H](C)[C@H](OC(C)=O)[C@@H]1C)C4=O [Rifabutin] | 
15 | 1.73 | 1.61 | CO[C@H]1/C=C/O[C@@]2(C)Oc3c(C)c(O)c4c(O)c(c(/C=N/N5CCN(C)CC5)c(O)c4c3C2=O)NC(=O)/C(C)=C\C=C\[C@H](C)[C@H](O)[C@@H](C)[C@@H](O)[C@@H](C)[C@H](OC(C)=O)[C@@H]1C [Rifampicin] | 
16 | 5.12 | 2.45 | CO[C@H]1/C=C/O[C@@]2(C)Oc3c(C)c(O)c4c(O)c(c(/C=N/N5CCN(C6CCCC6)CC5)c(O)c4c3C2=O)NC(=O)/C(C)=C\C=C\[C@H](C)[C@H](O)[C@@H](C)[C@@H](O)[C@@H](C)[C@H](OC(C)=O)[C@@H]1C [Rifapentine] | 
17 | 1.74 | 4.29 | CC(C)c1nc(CN(C)C(=O)N[C@H](C(=O)N[C@@H](Cc2ccccc2)C[C@H](O)[C@H](Cc2ccccc2)NC(=O)OCc2cncs2)C(C)C)cs1 [Ritonavir] | 
18 | 0.108 | 2.04 | CC[C@H]1OC(=O)[C@H](C)[C@@H](O[C@H]2C[C@@](C)(OC)[C@@H](O)[C@H](C)O2)[C@H](C)[C@@H](O[C@@H]2O[C@H](C)C[C@H](N(C)C)[C@H]2O)[C@](C)(O)C[C@@H](C)/C(=N\OCOCCOC)[C@H](C)[C@@H](O)[C@]1(C)O [Roxithromycin] | 
19 | 2.48 | 4.19 | C=CC[C@@H]1/C=C(\C)C[C@H](C)C[C@H](OC)[C@H]2O[C@@](O)(C(=O)C(=O)N3CCCC[C@H]3C(=O)O[C@H](/C(C)=C/[C@@H]3CC[C@@H](O)[C@H](OC)C3)[C@H](C)[C@@H](O)CC1=O)[C@H](C)C[C@@H]2OC [Tacrolimus] | 
20 | 0.319 | 2.1 | CC[C@H]1OC(=O)[C@H](C)C(=O)[C@H](C)[C@@H](O[C@@H]2O[C@H](C)C[C@H](N(C)C)[C@H]2O)[C@](C)(OC)C[C@@H](C)C(=O)[C@H](C)[C@H]2N(CCCCn3cnc(-c4cccnc4)c3)C(=O)O[C@]12C [Telithromycin] | 
21 | 0.0903 | 2.82 | CCC1=C[C@@H]2CN(C1)Cc1c([nH]c3ccccc13)[C@@](C(=O)OC)(c1cc3c(cc1OC)N(C)[C@H]1[C@@](O)(C(=O)OC)[C@H](OC(C)=O)[C@]4(CC)C=CCN5CC[C@]31[C@@H]54)C2 [Vinorelbine] | 
22 |  |  | COCCc1ccc(OCC(O)CNC(C)C)cc1 (stereo not drawn) [metoprolol] | decrease in the concentration on the Apical side (Caco-2 cells): approximately 20%
23 |  |  | CC(C)NCC(O)COc1cccc2ccccc12 (stereo not drawn) [propranolol] | decrease in the concentration on the Apical side (Caco-2 cells): approximately 40%; added drug distributed in the cells after completion of incubation (Caco-2 cells): approximately 8%
